According to PMC9137581, “Identification of a Novel Class of Anti-Melanogenic Compounds, (Z)-5-(Substituted benzylidene)-3-phenyl-2-thioxothiazolidin-4-one Derivatives, and Their Reactive Oxygen Species Scavenging Activities” (Antioxidants, 2022):

Tests used:
mushroom tyrosinase = biological target: T1, mushroom tyrosinase (Agaricus bisporus, UniProt C7FF04); test: Kinetic studies of mushroom tyrosinase inhibition (L-DOPA; Lineweaver–Burk and Dixon plots); assay type: biochemical; conditions: for mode of action (type of inhibition): Lineweaver–Burk plots; for Ki: determined using Dixon plots, L-DOPA substrate
T1 construct: purchased Sigma-Aldrich
Description: The Michael constants (KM), inhibition constants (Ki), and Lineweaver–Burk and Dixon plots of the analogs were used in order to determine their modes of action. […] The initial rates of dopachrome production in the reaction mixtures were calculated by measuring the increases in absorbance at 492 nm (ΔOD492/min) using a microplate reader (VersaMax™, Molecular Devices, Sunnyvale, CA, USA). The maximal reaction velocity (Vmax) was determined using Lineweaver–Burk plots (plots of the inverse of the reaction rate (1/V) versus the inverse of the substrate concentration (1/[S])) that were obtained using six different L-DOPA concentrations. The mode of action of each analog was determined using the convergence point of the four plot lines.
. Lineweaver–Burk plots were used in order to determine the modes of action of these four analogs (Figure 4). Mushroom tyrosinase inhibition plots were obtained using six different L-DOPA (substrate) concentrations and four different concentrations of each analog. […] On the other hand, the Michaelis–Menten constants (KM) increased upon the increase of the analogs’ concentrations (Table 3). The KM values of the analogs were 1.042, 1.193, 1.433, and 2.159 mM at analog 1 concentrations of 0, 1, 2, and 4 µM; 1.077, 2.117, 2.899, and 4.865 mM at analog 2 concentrations of 0, 2.5, 5, and 10 µM; […]; and 1.030, 1.243, 1.531, and 1.885 mM at analog 6 concentrations of 0, 1, 2, and 4 µM. The mean of the Vmax values that were determined from the Lineweaver–Burk plots was 0.0171 mM/min. In order to determine the inhibition constants (Ki) for the mushroom tyrosinase–analog complexes, the Lineweaver–Burk plots were converted into their corresponding Dixon plots (Figure 5), in which 1/V (where V is the initial reaction velocity) was plotted against the inhibitor concentration [I] at different L-DOPA [S] concentrations.

B16F10 cells = test: Melanin content assay in α-MSH plus IBMX-stimulated cells; assay type: cell-based, murine; conditions: for reduction of α-MSH plus IBMX-induced increase in melanin content: 48 h, B16F10 cells; for effect on melanin content compared with kojic acid: analog at 5 µM
Description: Briefly, B16F10 cells were seeded at a density of 1 × 10^5 cells per well in 6-well plates and allowed to adhere to the well bases under the same conditions that were used for cell culturing. […] In order to determine the melanin contents, the B16F10 cells that were exposed to α-MSH and IBMX for 48 h were rinsed with PBS twice and incubated in 200 µL of 1 N NaOH solution containing 10% dimethyl sulfoxide (DMSO) for 1 h at 60 °C. The cell lysates were transferred to a 96-well plate and the absorbances at 405 nm were measured using a microplate reader (VersaMax™, Molecular Devices, Sunnyvale, CA, USA). These experiments were performed individually in triplicate. B16F10 cells were seeded in 6-well culture plates and pretreated with analogs 1, 3, and 6 at concentrations of 0, 5, 10, or 20 µM and with analog 2 at 0, 2.5, 5, or 10 µM for 1 h. α-Melanocyte-stimulating hormone (α-MSH; 1 µM) and 3-isobutyl-1-methylxanthine (IBMX; 200 µM) were added sequentially in order to enhance melanin production. After incubation for 48 h at 37 °C, the melanin contents were assessed by measuring the well optical densities at 405 nm using a microplate reader. Kojic acid (10 or 20 µM) was used as a positive control.

[1] = DPPH radical scavenging activity assay; conditions: 1 mM, 30 min in the dark
Description: The effects of the (Z)-BPTT analogs 1–13 on DPPH radical scavenging activities were investigated as previously described with slight modification. Briefly, 180 μL of 0.2 mM DPPH in methanol was added to 96-well plates and then 20 μL of one of the (Z)-BPTT analogs 1–13 (10 mM in DMSO) or the positive control (10 mM L-ascorbic acid in distilled water) was added and mixed. The 96-well plates were incubated in the dark for 30 min and then the well optical densities were measured at 517 nm using a VersaMax™ microplate reader (Molecular Devices, Sunnyvale, CA, USA). All of these experiments were performed independently in triplicate. The DPPH radical scavenging activities of the analogs were calculated using the following formula:Scavenging activity (%) = (Ac − As) × 100/Ac where Ac is the optical density of the non-treated control and As is the optical density of the tested material.
The DPPH (2,2-diphenyl-1-picrylhydrazyl) radical scavenging abilities of the (Z)-BPTT analogs were investigated using L-ascorbic acid (vitamin C) as a positive control. The final concentrations of the analogs and of the positive control in the test samples and in the DPPH methanol solution were 1 and 0.18 mM, respectively. The scavenging activities of the analogs were assessed by measuring their optical densities at 517 nm after standing the samples in the dark for 30 min.

[2] = ABTS free radical scavenging activity assay; conditions: 100 µM, 2 min in the dark
Description: ABTS free radical scavenging activity was used to evaluate the antioxidant activities of analogs 1–13, as previously described. […] This ABTS free radical solution was then diluted with absolute methanol to an absorbance of 0.70 ± 0.02 at 734 nm. Aliquots (10 µL) of the test samples (10% DMSO + 90% EtOH) were added at a final concentration of 100 µM to 90 µL of the diluted ABTS free radical solution and incubated for 2 min in the dark at room temperature. Absorbances were then measured at 734 nm using a VersaMax™ microplate reader (Molecular Devices, Sunnyvale, CA, USA). The ABTS free radical scavenging activities of the test analogs were calculated using the following formula:Scavenging activity (%) = (Ac − As) × 100/Ac where Ac is the optical density of the non-treated control and As is the optical density of the tested material.
The effects of analogs 1–13 on ABTS (2,2′-azino-bis(3-ethylbenzothiazoline-6-sulfonic acid)) free radical scavenging activity were investigated using trolox as a positive reference control. The concentrations of the analogs and trolox in the test samples were 100 µM. The free radical scavenging activities were assessed by measuring the optical densities at 734 nm after standing in the dark for 2 min. […] Analogs 7–10, with no hydroxyl groups on the β-phenyl ring, had weak ABTS and DPPH radical scavenging activities.

[3] = Calculated log p (ChemDraw Ultra 12.0); conditions: from calculated log p 3.16 vs. –2.45
Source text: In order to determine how well the (Z)-BPTT analogs are absorbed by skin, their log p (partition coefficient) values were examined using ChemDraw Ultra Ver. 12.0.

T1 sequence (C7FF04 1-392): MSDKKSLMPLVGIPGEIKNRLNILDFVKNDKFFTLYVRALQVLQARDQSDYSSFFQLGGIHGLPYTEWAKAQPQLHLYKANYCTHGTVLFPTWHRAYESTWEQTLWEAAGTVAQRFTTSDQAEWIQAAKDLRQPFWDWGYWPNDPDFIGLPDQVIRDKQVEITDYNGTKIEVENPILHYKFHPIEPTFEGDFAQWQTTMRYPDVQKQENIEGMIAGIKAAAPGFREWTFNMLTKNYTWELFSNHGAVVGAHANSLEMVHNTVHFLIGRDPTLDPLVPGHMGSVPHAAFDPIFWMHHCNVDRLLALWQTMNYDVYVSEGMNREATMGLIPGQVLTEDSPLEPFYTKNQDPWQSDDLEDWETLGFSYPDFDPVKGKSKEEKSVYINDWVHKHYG

SMILES | mode of action (type of inhibition) (mushroom tyrosinase) | Ki (mushroom tyrosinase) [µM] | reduction of α-MSH plus IBMX-induced increase in melanin content (B16F10 cells; 20 µM) [%] | effect on melanin content compared with kojic acid (B16F10 cells) | DPPH radical scavenging activity [1] [%] | ABTS free radical scavenging activity (in words) [2] | melanin suppression relative to kojic acid at 10 µM (B16F10 cells; 10 µM) [fold] | reduction of α-MSH plus IBMX-induced increase in melanin content (B16F10 cells; 10 µM) [%] | suppression of α-MSH plus IBMX-induced melanogenesis compared with kojic acid (B16F10 cells; analog at 2.5 µM) | ABTS free radical scavenging activity [2] [%] | partition coefficient relative to kojic acid [3]
O=C1/C(=C/c2ccc(O)cc2)SC(=S)N1c1ccccc1 [Analog 1, (Z)-5-(4-Hydroxybenzylidene)-3-phenyl-2-thioxothiazolidin-4-one] | competitive | 4.67 | 56.3 | as effective as kojic acid at 20 µM | 14.7 | weak |  |  |  |  | 
O=C1/C(=C/c2ccc(O)c(O)c2)SC(=S)N1c1ccccc1 [Analog 2, (Z)-5-(3,4-Dihydroxybenzylidene)-3-phenyl-2-thioxothiazolidin-4-one] | competitive | 3.18 |  |  | 92.2 |  | 4.1 | 89.6 | as effectively as kojic acid at 10 µM | 96.9 | 10^5 fold
O=C1/C(=C/c2ccc(O)cc2O)SC(=S)N1c1ccccc1 [Analog 3, (Z)-5-(2,4-Dihydroxybenzylidene)-3-phenyl-2-thioxothiazolidin-4-one] | competitive | 0.708 | 61.3 | as effective as kojic acid at 20 µM | 57.0 |  |  |  |  | 82.0 | 10^5 fold
COc1ccc(/C=C2\SC(=S)N(c3ccccc3)C2=O)cc1O [Analog 6, (Z)-5-(3-Hydroxy-4-methoxybenzylidene)-3-phenyl-2-thioxothiazolidin-4-one] | competitive | 3.23 | 50.9 | as effective as kojic acid at 20 µM | 27.2 |  |  |  |  |  | 
